We go through 1 substance from patent US7438931B2, “Methods and compositions for the treatment of angiogenic diseases” (The Regents of The University of Michigan, priority 1998, dated 2008).

Data set [1] has as its system mouse sarcoma, MCA205, and a mouse melanoma, B16B16. The data set is described as follows: Mouse tumor model, injected tumor cells in C57B1/6J mice. The data set is classed as in vivo. The protocol: Under these guidelines, anti-angiogenesis therapeutic studies were conducted using TM in a mouse tumor model. This study involved subcutaneous or intramuscular injection of tumor cells into young adult C57B1/6J mice. Two tumors were used, a mouse sarcoma, MCA205, and a mouse melanoma, B16B16. The MCA 205 tumor cell suspension was injected subcutaneously into C57B16 mice. After the tumors were palpable, copper deficiency was induced by use of TM in half the animals, using Cp levels to monitor copper status. The other half were sham treated. Tumor growth was compared between the untreated control group and mice treated with sufficient TM to reduce Cp to about 10% of normal controls.

Data set [2] relates to copper toxicity. Particulars: cited from earlier work.
The conditions of data set [3]: approximately 6 mg of TM per kilogram of diet; cited from earlier work.
Data set [4] deals with Serum ceruloplasmin (Cp). The experiment in a line: Phase I trial: serum ceruloplasmin as surrogate marker of total-body copper. Type of data set: in vivo, human. The protocol:
Three dose regimens were evaluated. All dose levels consisted of TM 20 mg given 3 times daily with meals plus an escalating (levels I, II, and III) in-between meal dosing, given 3 times daily, for a total of 6 doses per day. Loading dose levels I, II, and III provided TM at 10 mg, 15 mg, and 20 mg, 3 times daily between meals, respectively, in addition to the 3 doses of 20 mg each, given with meals, at all dose levels.
Baseline Cp was taken as the nearest Cp measurement to day 1 of treatment, including day 1, since the blood was drawn pre-TM, for all patients. The target Cp reduction was defined as 20% of baseline Cp. Due to Cp assay variability of approximately 2%, a change of Cp to 22% of baseline was considered as achieving the desired reduction of copper. In addition, if the absolute Cp was less than 5 mg/dl, then the patient was considered as having reached the target Cp. No patient reached the target due to an absolute Cp of less that 5 mg/dl, without also being at least 78% reduced from baseline. After reaching the target copper deficient state, TM doses were individually tailored to maintain Cp within a target window of 70-90% reduction from baseline.
A method was required to monitor copper status easily and reliably, so that TM dose could be adjusted appropriately during this trial. With TM administration, serum copper is not a useful measure of total-body copper, because the TM-copper-albumin complex is not rapidly cleared, and the total serum copper (including the fraction bound to the TM-protein complex) actually increases during TM therapy (Brewer et al., 1991a; 1994b; 1996). The serum ceruloplasmin level obtained weekly was used as a surrogate measure of total-body copper status. The serum Cp level is controlled by Cp synthesis by the liver, which, in turn, is determined by copper availability to the liver (Linder et al., 1979). […] The serum Cp level is in the range of 20-35 mg/dl and 30-65 mg/dl for normal controls and cancer patients, respectively. The objective as this trial was to reduce Cp to or below 20% of baseline, and to maintain this level, within a window spanned by (20±10) % of the baseline Cp, with typical Cp values in the range of 7-12 mg/dl. Since there appears to be no untoward clinical effects from this degree of copper reduction, this level of copper deficiency has been termed “chemical copper deficiency”. The first indication of true clinical copper deficiency is a reduction in blood cell counts, primarily anemia, as copper is required for heme synthesis as well as cellular proliferation (Brewer et al., 1996). Thus, the copper deficiency objective of this trial was to reduce the Cp to 20% of baseline or below, without decreasing the patient's hematocrit or WBC to below 80% of the baseline value at entry.
Complete blood counts, liver and renal function tests, urinalyses, and Cp level (by the oxidase method) were performed weekly for 16 weeks, then bi-weekly. Physical examinations and evaluations of toxicity were carried out every 2 weeks for 8 weeks, then every 4 weeks for the duration of therapy. Toxicity was evaluated using the National Cancer Institute Common Toxicity Criteria (Table 3). As TM is not a cytotoxic drug at the doses employed, and it has already been given to humans without any other toxicities than the ones described in detail above, the majority of the toxicities listed in Table 3, should they arise, are not expected to be due to TM. Nevertheless, therapy will be discontinued and the patient removed from the study if grade 3 or higher toxicities of any type are observed, whatever the probable etiology. For grade 2 toxicities, an attempt will be made to establish their etiology.

The mark [5] stands for this setting: initial TM doses 90 to 120 mg per day, six times per day regimen.

Turning to tetrathiomolybdate [TM], the tumor growth result in data set [1] (TM sufficient to reduce Cp to about 10% of normal, 16 days of observation) was “Tumor growth was slowed by the treatment, although not halted”. In data set [1] (TM-treated vs control mice), the “tumor weight normalized to total weight of the animal” value is “weighed significantly less than the tumors in control mice”. For the same substance, the “tolerability of IV TM injections” value in data set [2] (copper loaded sheep, 50 or 100 mg 2× weekly for up to 11 weeks) is recorded as “tolerated up to 22 injections of TM without clinical problems”. Moreover, the adverse side effects result in data set [2] (over 400 animals of commercial sheep flocks, prophylactic use) is given as “no adverse side effects”. Also, the effects on copper result in data set [3] was “reduction of plasma ceruloplasmin and a reduction in liver and kidney copper”. Moreover, in data set [4] (18 patients), the “No. of Patients: Achieved Target Cp” value is recorded as 14 and the “No. of Patients: Did Not Achieve Target Cp” value is reported as 4. Also, in data set [4] (90, 105 and 120 mg/day), the “time to Cp 50% of baseline, mean” value was 30 days and the “time to Cp 50% of baseline, median” value is listed as 28 days. For the same substance, in data set [4] (after reduction to 50% of baseline), the “time for further reduction to Cp levels of 5-10 mg/dl” value fell in the range of 20 to 30 days. The “effect of increasing in-between meals dose on Cp decrease” value in data set [4] (from 10 mg 3× daily to 15 mg or 20 mg 3× daily) is on record as “no significant effect on the rate of decrease of the Cp level”. In data set [4] (in vivo), the “No. of Patients: Target Cp <90 days” value was 8/14, the “No. of Patients: Target Cp >90 days” value is 6/14, the “patients maintained at the target Cp for more than 90 days” value is listed as 39 % of those treated and the “time to rapid rise in Cp when TM was discontinued” value is at most 48 h. Also, in data set [4] (setting [5]), the “patients with serum Cp lowered to 20% of baseline” value is listed as 14 out of 18 and the “patients with serum Cp lowered to 50% of baseline” value was 17 out of 18. Besides, the “reaching the target Cp” value in data set [4] (level III dose 120 mg/day) is recorded as “effective in reaching the target Cp, without added toxicity”.
